# Test results taken from US20080187512A1, “Treatment for spinal muscular atrophy” (Academia Sinica, priority 2007, published 2008).
# Like-named read-outs stand apart in the source and are kept apart here.
# What was measured:
# Jak1 (pY1022/pY1023) = conditions: SMN2-NSC34 cells
# Experimental: (§1) Western blot analysis. Cells treated by dsRNA, compounds or Stat5A1*6 transfected were detached by scraping, pelletting and rinsing in PBS. Cell pellets were collected after centrifugation and lysed on ice in modified RIPA buffer (50 mM Tris-HCl (pH7.4), 1% NP-40, 0.25% deoxycholic acid, 0.15M NaCl, 1 mM EDTA, 1 mM PMSF/NaF/sodium orthovanadate, and protease inhibitors cocktail (Roche, Mannheim, Germany) for 30 min. After centrifugation, the supernatants were collected and kept frozen at −20° C. Protein concentrations were determined by Bio-Rad protein assay method. For Western blot analysis, protein samples were boiled for 5 min and electrophoresed on 8% or 10% SDS-polyacrylamide gel in a 1× running buffer (25 mM Tris, 192 mM glycine, 3.4 mM SDS, pH 8.3) and subsequently electrotransferred to Polyvinylidene Fluoride tansfer membrane (Pall, Pensacola, Fla.) using a TE 22 mini-tank transfer unit (Amersham Biosciences, San Francisco, Calif.) at 35 volts overnight in transfer buffer (25 mM Tris, 192 mM glycine, 20% methanol, pH8.3). The blotting membranes were incubated in blocking solution (PBS, 5% non-fat milk, 0.2% Tween-20) for 1 hour at room temperature, and then incubated in the same solution with the primary antibody (human-specific SMN/1:1000; SMN/1:5000, Transduction Laboratories, Lexington, Ky.; phospho-Stat5a/b/1:1000, Cell signaling, Beverly, Mass.; phospho-Jak2/1:1000, Upstate, Lake Placid, N.Y.; Flag BioM2/1:1000, Sigma, St. Louis, MO; c-myc/1:200, Santa Cruz Biotech, Santa Cruz, Calif.; α-Tubilin/1:10000, Upstate, Lake Placid, N.Y., MO), overnight at 4° C. The membranes were washed and incubated in the blocking solution with the proper HRP-conjugated secondary antibody at 1/5000 dilution (Chemicon, Temecula, Calif.) for 1 hour at room temperature. After washing three times in PBS containing 0.1% Tween-20, the signals were visualized by autoradiography (Fuji Medical X-ray film, Fuji Photos, Tokyo) using enhanced chemi-luminescence (ECL detection system; Perkin-Elmer, Boston, Calif.). Western blot quantification was performed by scanning the auto-radiographs with a computerized densitometer. Signal intensities were determined by densitometry analysis (Fuji film LAS-1000 plus pictography) using the program Phoreticx 1D (Phoreticx International).
# SHC = conditions: SMN2-NSC34 cells
# Experimental: as §1
# RPTPα = conditions: SMN2-NSC34 cells
# Experimental: as §1
# PTP1B = conditions: SMN2-NSC34 cells
# Experimental: as §1
# MKP2 = conditions: SMN2-NSC34 cells
# Experimental: as §1
# KAP = conditions: SMN2-NSC34 cells
# Experimental: as §1
# GRB14 = conditions: SMN2-NSC34 cells
# Experimental: as §1
# NCK = conditions: SMN2-NSC34 cells
# Experimental: as §1
# PI3-Kinase = conditions: SMN2-NSC34 cells
# Experimental: as §1
# LAR = conditions: SMN2-NSC34 cells
# Experimental: as §1
# ShcC = conditions: SMN2-NSC34 cells
# Experimental: as §1
# RPTPβ = conditions: SMN2-NSC34 cells
# Experimental: as §1
# GRB2 = conditions: SMN2-NSC34 cells
# Experimental: as §1
# Crk = conditions: SMN2-NSC34 cells
# Experimental: as §1
# PTP1C/SHP1 = conditions: SMN2-NSC34 cells
# Experimental: as §1
# Stat1 (pY701) = assay: Signaling pathway screen in SMN2-NSC34 cells; type: cell-based, mouse
# JNK (pT183/pY185) = assay: Signaling pathway screen in SMN2-NSC34 cells; type: cell-based, mouse
# P38 (pT180/pY182) = assay: Signaling pathway screen in SMN2-NSC34 cells; type: cell-based, mouse
# Stat2 (pY705) = assay: Signaling pathway screen in SMN2-NSC34 cells; type: cell-based, mouse
# Jak2 (pY1007/pY1008) = assay: Signaling pathway screen in SMN2-NSC34 cells; type: cell-based, mouse; for Jak2 (pY1007/pY1008) cellular response: key: −: decreasing; +/−: no activation; +: slight activation; ++: minor activation; +++: significant activation
# Experimental: as §1
# Therefore, TSA, aclarubicin and sodium vanadate all induce the activation of Stat5A in motor neuron-like NSC34 cells.
# Stat6 (pT641) = assay: Signaling pathway screen in SMN2-NSC34 cells; type: cell-based, mouse
# SMN2 = SMN2 splicing pattern, semi-quantitative RT-PCR in SMA-like MEFs; type: cell-based, mouse; design: key to SMN2 splicing pattern MEF: −: no effect; +: effective; +++: most effective
substance,measurement,setting,value
Sodium vanadate,Jak1 (pY1022/pY1023) cellular response,Jak1 (pY1022/pY1023); 4 hrs,+/−
same,Jak1 (pY1022/pY1023) cellular response,Jak1 (pY1022/pY1023); 8 hrs,+
same,SHC cellular response,SHC; 4 hrs,+/−
same,SHC cellular response,SHC; 8 hrs,+/−
same,RPTPα cellular response,RPTPα; 4 hrs,+/−
same,RPTPα cellular response,RPTPα; 8 hrs,−
same,PTP1B cellular response,PTP1B; 4 hrs,+/−
same,PTP1B cellular response,PTP1B; 8 hrs,−
same,MKP2 cellular response,MKP2; 4 hrs,−
same,MKP2 cellular response,MKP2; 8 hrs,−
same,KAP cellular response,KAP; 4 hrs,+/−
same,KAP cellular response,KAP; 8 hrs,−
same,GRB14 cellular response,GRB14; 4 hrs,+/−
same,GRB14 cellular response,GRB14; 8 hrs,+/−
same,NCK cellular response,NCK; 4 hrs,+/−
same,NCK cellular response,NCK; 8 hrs,+/−
same,PI3-Kinase cellular response,PI3-Kinase; 4 hrs,+/−
same,PI3-Kinase cellular response,PI3-Kinase; 8 hrs,+/−
same,LAR cellular response,LAR; 4 hrs,+/−
same,LAR cellular response,LAR; 8 hrs,+/−
same,ShcC cellular response,ShcC; 4 hrs,+/−
same,ShcC cellular response,ShcC; 8 hrs,+/−
same,RPTPβ cellular response,RPTPβ; 4 hrs,+/−
same,RPTPβ cellular response,RPTPβ; 8 hrs,+/−
same,GRB2 cellular response,GRB2; 4 hrs,+/−
same,GRB2 cellular response,GRB2; 8 hrs,+/−
same,Crk cellular response,Crk; 4 hrs,+/−
same,Crk cellular response,Crk; 8 hrs,+/−
same,PTP1C/SHP1 cellular response,PTP1C/SHP1; 4 hrs,+/−
same,PTP1C/SHP1 cellular response,PTP1C/SHP1; 8 hrs,−
same,Stat1 (pY701) cellular response,Stat1 (pY701); 4 hrs,−
same,Stat1 (pY701) cellular response,Stat1 (pY701); 8 hrs,+/−
same,JNK (pT183/pY185) cellular response,JNK (pT183/pY185); 4 hrs,+/−
same,JNK (pT183/pY185) cellular response,JNK (pT183/pY185); 8 hrs,+
same,P38 (pT180/pY182) cellular response,P38 (pT180/pY182); 4 hrs,+/−
same,P38 (pT180/pY182) cellular response,P38 (pT180/pY182); 8 hrs,+
same,Stat2 (pY705) cellular response,Stat2 (pY705); 4 hrs,+/−
same,Stat2 (pY705) cellular response,Stat2 (pY705); 8 hrs,+/−
same,Jak2 (pY1007/pY1008) cellular response,Jak2 (pY1007/pY1008),+ and ++
same,Jak2 activation,Jak2 (pY1007/pY1008),found activated
same,Stat6 (pT641) cellular response,Stat6 (pT641); 4 hrs,−
same,Stat6 (pT641) cellular response,Stat6 (pT641); 8 hrs,−
same,SMN2 splicing pattern MEF,SMN2,+++
same,influence on SMN2 expression,SMN2,found to influence SMN2 expression
